Measurements reported in patent US9481676B2, “Azepino[4,5-B]indoles and methods of use” (Medivation Technologies, Inc., priority 2008, dated 2016).

Target: T1, human recombinant adrenergic α2B receptor (Homo sapiens, UniProt P18089)
T1 construct: expressed in transfected cells; host or cells: CHO-K1 cells
T1 sequence (P18089 1-450): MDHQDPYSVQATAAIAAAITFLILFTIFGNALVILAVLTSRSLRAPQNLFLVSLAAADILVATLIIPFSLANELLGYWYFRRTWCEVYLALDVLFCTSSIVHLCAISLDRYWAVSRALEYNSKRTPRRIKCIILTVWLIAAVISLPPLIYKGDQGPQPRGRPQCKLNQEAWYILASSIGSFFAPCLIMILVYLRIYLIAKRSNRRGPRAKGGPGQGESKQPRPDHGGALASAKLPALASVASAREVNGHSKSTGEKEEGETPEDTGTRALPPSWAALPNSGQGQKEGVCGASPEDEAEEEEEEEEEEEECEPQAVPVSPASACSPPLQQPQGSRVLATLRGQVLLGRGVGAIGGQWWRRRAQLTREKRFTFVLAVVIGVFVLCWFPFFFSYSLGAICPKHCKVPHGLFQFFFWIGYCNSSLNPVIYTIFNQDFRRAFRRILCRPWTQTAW
Test: Adrenergic alpha2B radioligand binding ([3H]Rauwolscine)
Settings: compound at 1 μM; read-out: Adrenergic (1 μM) α2B, percent inhibition of specific binding
Method: To evaluate in radioligand binding assays the activity of compounds of the invention, human recombinant adrenergic α2B receptor expressed in Chinese hamster ovary (CHO-K1) cells (Uhlen S et al. Eur J. Pharmacol. 343(1):93, 1998) in a modified Tris-HCl buffer (50 mM Tris-HCl, pH 7.4, 12.5 mM MgCl2, 1 mM EDTA, 0.2% BSA) was used. Compounds of the invention were incubated with 2.5 nM [^3H]Rauwolscine for 60 min. at 25° C. Non-specific binding was estimated in the presence of 10 μM Prozosin. Receptor proteins were filtered and washed, the filters were then counted to determine [^3H]Rauwolscine specifically bound. Compounds were screened at 1 μM or lower, using 1% DMSO as vehicle. Biochemical assay results are presented as the percent inhibition of specific binding in Table 5.

Compound | inhibition at 1 µM [%]
CN1CCc2c(n(CC(=O)N3CCNCC3)c3ccc(Cl)cc23)CC1 [Compound No. 72, 2-(9-chloro-2,3,4,5-tetrahydro-3-methylazepino[4,5-b]indol-6(1H)-yl)-1-(piperazin-1-yl)ethanone] | 7
CN1CCc2c(n(CC(=O)N(C)C3CCCCC3)c3ccc(Cl)cc23)CC1 [Compound No. 74, 2-(9-chloro-2,3,4,5-tetrahydro-3-methylazepino[4,5-b]indol-6(1H)-yl)-N-cyclohexyl-N-methylacetamide] | 27
Cc1ccc2c(c1)c1c(n2CC(=O)NC(C)C)CCN(C)CC1 [Compound No. 54, 2-(2,3,4,5-tetrahydro-3,9-dimethylazepino[4,5-b]indol-6(1H)-yl)-N-isopropylacetamide] | 1
COc1ccc(C(O)Cn2c3c(c4cc(Cl)ccc42)CCN(C)CC3)cc1 (stereo not drawn) [Compound No. 47, 2-(9-chloro-2,3,4,5-tetrahydro-3-methylazepino[4,5-b]indol-6(1H)-yl)-1-(4-methoxyphenyl)ethanol] | 105
CN1CCc2c(n(CC(=O)OCc3ccccc3)c3ccc(Cl)cc23)CC1 [Compound No. 75, Benzyl-2-(9-chloro-2,3,4,5-tetrahydro-3-methylazepino[4,5-b]indol-6(1H)-yl)acetate] | 21
CN1CCc2c(n(CC(O)c3ccccc3F)c3ccc(Cl)cc23)CC1 (stereo not drawn) [Compound No. 40, 2-(9-chloro-2,3,4,5-tetrahydro-3-methylazepino[4,5-b]indol-6(1H)-yl)-1-(2-fluorophenyl)ethanol] | 101
C/C(=C\n1c2c(c3cc(C)ccc31)CCN(C)CC2)c1ccc(F)cc1 [Compound No. 34, 6-((E)-2-(4-fluorophenyl)prop-1-enyl)-1,2,3,4,5,6-hexahydro-3,9-dimethylazepino[4,5-b]indole] | 110
Cc1ccc(C(O)Cn2c3c(c4cc(Cl)ccc42)CCN(C)CC3)cn1 (stereo not drawn) [Compound No. 7, 2-(9-chloro-2,3,4,5-tetrahydro-3-methylazepino[4,5-b]indol-6(1H)-yl)-1-(6-methylpyridin-3-yl)ethanol] | 101
CN1CCc2c(n(CCc3ccccc3)c3ccc(Cl)cc23)CC1 [Compound No. 56, 9-chloro-1,2,3,4,5,6-hexahydro-3-methyl-6-phenethylazepino[4,5-b]indole] | 91
CN1CCc2c(n(CCc3ccccn3)c3ccc(Cl)cc23)CC1 [Compound No. 8, 9-chloro-1,2,3,4,5,6-hexahydro-3-methyl-6-(2-(pyridin-2-yl)ethyl)azepino[4,5-b]indole] | 103
Cc1ccc2c(c1)c1c(n2CC(=O)Nc2ccc(F)cc2)CCN(C)CC1 [Compound No. 44, N-(4-fluorophenyl)-2-(2,3,4,5-tetrahydro-3,9-dimethylazepino[4,5-b]indol-6(1H)-yl)acetamide] | 12
COc1ccc(C(O)Cn2c3c(c4cc(Cl)ccc42)CCN(C)CC3)cc1F (stereo not drawn) [Compound No. 67, 2-(9-chloro-2,3,4,5-tetrahydro-3-methylazepino[4,5-b]indol-6(1H)-yl)-1-(3-fluoro-4-methoxyphenyl) ethanol] | 99
Cc1ccc2c(c1)c1c(n2CCc2ccccc2F)CCN(C)CC1 [Compound No. 63, 6-(2-fluorophenethyl)-1,2,3,4,5,6-hexahydro-3,9-dimethylazepino[4,5-b]indole] | 73
CN1CCc2c(n(CC(O)c3ccc(Cl)cc3)c3ccc(Cl)cc23)CC1 (stereo not drawn) [Compound No. 16, 2-(9-chloro-2,3,4,5-tetrahydro-3-methylazepino[4,5-b]indol-6(1H)-yl)-1-(4-chlorophenyl)ethanol] | 99
CN1CCc2c(n(CCc3ccc(Cl)cc3)c3ccc(Cl)cc23)CC1 [Compound No. 30, 6-(4-chlorophenethyl)-9-chloro-1,2,3,4,5,6-hexahydro-3-methylazepino[4,5-b]indole] | 100
Cc1ccc2c(c1)c1c(n2CC(O)c2ccc(F)cc2F)CCN(C)CC1 (stereo not drawn) [Compound No. 59, 1-(2,4-difluorophenyl)-2-(2,3,4,5-tetrahydro-3,9-dimethylazepino[4,5-b]indol-6(1H)-yl)ethanol] | 9
CN1CCc2c(n(C#Cc3ccc(F)cc3)c3ccc(Cl)cc23)CC1 [Compound No. 281, 9-chloro-6-((4-fluorophenyl)ethynyl)-3-methyl-1,2,3,4,5,6-hexahydroazepino[4,5-b]indole] | 99
Cc1ccc2c(c1)c1c(n2CC(C)(O)c2ccc(Cl)cc2)CCN(C)CC1 (stereo not drawn) [Compound No. 15, 2-(4-chlorophenyl)-1-(2,3,4,5-tetrahydro-3,9-dimethylazepino[4,5-b]indol-6(1H)-yl)propan-2-ol] | 104
